Like-named read-outs stand apart in the source and are kept apart here.
What was measured:
[1] = Blood concentration after oral (intragastric) administration to Beagle dogs; assay type: in vivo
Procedure: Solid powder of mangiferin aglycone crystal form I and commercially available mangiferin aglycone (reference substance of mangiferin aglycone, purchased from Sigma Corporation, Lot No.: 8420-201002) were administered to Beagle dogs intragastrically respectively. The dosage of administration was 6mg/kg, and arterial blood of the dogs was drawn at different time points after administration to determine the content of mangiferin aglycone (See Table 4 and Figure 6). Table 4. Comparison of blood concentrations at different time points after mangiferin aglycone samples were administered orally to Beagle dogs

[2] = Stability of solutions in alkaline phosphate buffer, content by HPLC; assay type: physicochemical; details: for remaining at 2 h / remaining at 4 h / remaining at 6 h / remaining at 8 h / remaining at 12 h: phosphate buffer, read-out: content of mangiferin aglycone; for remaining at 2 h: standing time 2h; for remaining at 4 h: standing time 4h; for remaining at 6 h: standing time 6h; for remaining at 8 h: standing time 8h; for remaining at 12 h: standing time 12h
Procedure: Appropriate amounts of mangiferin aglycone crystal form I and mangiferin aglycone were taken respectively, and phosphate buffer of pH 8.0, pH 9.0 and pH 10.0 were added respectively, metered to 100 ml, and were allowed to stand at 37°C, and samples were taken at 2, 4, 6, 8 and 12 hours respectively, and the content of mangiferin aglycone were measured by HPLC method. Stability of solution of mangiferin aglycone crystal form I

[3] = Active destructing test (stability) with HPLC analysis; assay type: physicochemical
Procedure: Active destructing test of mangiferin aglycone crystal form I: high purity mangiferin aglycone obtained in the same batch was respectively subjected to the following treatments: • (1) Destruction by strong acid: 0.5 mg sample was precisely weighed in a 50 ml measuring flask, and 1 ml of 0.1 mol/L hydrochloric acid aqueous solution was added, mixed evenly, and was allowed to stand for 48 hours at 20~30°C; • (2) Destruction by strong base: 0.5 mg sample was precisely weighed in a 50 ml measuring flask, and 1 ml of 0.1 mol/L sodium hydroxide aqueous solution was added, mixed evenly, and was allowed to stand for 48 hours at 20~30°C; • (3) Destruction by strong oxidant: 0.5 mg sample was precisely weighed in a 50 ml measuring flask, and 1 ml of 10% aqueous solution of hydrogen peroxide (H2O2) was added, mixed evenly, and was allowed to stand for 48 hours at 20~30°C; • (4) Destruction by high temperature: 0.5 mg sample was precisely weighed in a 50 ml measuring flask, and was allowed to stand for 48 hours at 100°C; • (5) Destruction by strong light: 0.5 mg sample was precisely weighed in a 50 ml measuring flask, and was allowed to stand for 240 hours under strong light condition of 4500±500 lux. The above-mentioned testing samples were taken out at specified time points, and methanol was added to dissolve and diluted the sample to the scale mark, shook well, then […] samples were analyzed by HPLC.
Stability test of mangiferin aglycone crystal form I

[4] = pH 8, phosphate buffer pH8, 37°C
[5] = pH 9, phosphate buffer pH9, 37°C
[6] = pH 10, phosphate buffer pH10, 37°C
[7] = destructing by high temperature: 48 hours at 100°C
[8] = destructing by strong acid: 0.1 mol/L hydrochloric acid, 48 hours at 20~30°C
[9] = destructing by strong base: 0.1 mol/L sodium hydroxide, 48 hours at 20~30°C
[10] = destructing by strong light: 240 hours at 4500±500 lux
[11] = destructing by strong oxidant: 10% hydrogen peroxide, 48 hours at 20~30°C

Question: For `O=c1c2cc(O)c(O)cc2oc2cc(O)cc(O)c12` [mangiferin aglycone crystal form I, 1,3,6,7-tetrahydroxyxanthone], which concentration at 0.25 h ([1]; dog, serum, po, 6 mg/kg, intragastrically, 6mg/kg, solid powder, 0.25 hr, read-out: Mangiferin aglycone concentration in serum) is on record?
Answer: 721 nM

Question: What about the concentration at 0.5 h ([1]; dog, serum, po, 6 mg/kg, intragastrically, 6mg/kg, solid powder, 0.5 hr, read-out: Mangiferin aglycone concentration in serum) of the same compound?
Answer: 470 nM

Question: And the concentration at 0.75 h ([1]; dog, serum, po, 6 mg/kg, intragastrically, 6mg/kg, solid powder, 0.75 hr, read-out: Mangiferin aglycone concentration in serum)?
Answer: 601 nM

Question: And the concentration at 1 h ([1]; dog, serum, po, 6 mg/kg, intragastrically, 6mg/kg, solid powder, 1 hr, read-out: Mangiferin aglycone concentration in serum)?
Answer: 387 nM

Question: And the concentration at 1.5 h ([1]; dog, serum, po, 6 mg/kg, intragastrically, 6mg/kg, solid powder, 1.5 hr, read-out: Mangiferin aglycone concentration in serum)?
Answer: 163 nM

Question: And the concentration at 2 h ([1]; dog, serum, po, 6 mg/kg, intragastrically, 6mg/kg, solid powder, 2 hr, read-out: Mangiferin aglycone concentration in serum)?
Answer: 158 nM

Question: And the concentration at 3 h ([1]; dog, serum, po, 6 mg/kg, intragastrically, 6mg/kg, solid powder, 3 hr, read-out: Mangiferin aglycone concentration in serum)?
Answer: 119 nM

Question: And the concentration at 4 h ([1]; dog, serum, po, 6 mg/kg, intragastrically, 6mg/kg, solid powder, 4 hr, read-out: Mangiferin aglycone concentration in serum)?
Answer: 96 nM

Question: And the concentration at 6 h ([1]; dog, serum, po, 6 mg/kg, intragastrically, 6mg/kg, solid powder, 6 hr, read-out: Mangiferin aglycone concentration in serum)?
Answer: 84.4 nM

Question: And the concentration at 8 h ([1]; dog, serum, po, 6 mg/kg, intragastrically, 6mg/kg, solid powder, 8 hr, read-out: Mangiferin aglycone concentration in serum)?
Answer: 80.8 nM

Question: What about the oral bioavailability ([1]; same oral dosage, compared with commercially available mangiferin aglycone) of the same compound?
Answer: higher

Question: What about the stability of solution ([2]; different alkaline phosphate buffer solutions, compared with mangiferin aglycone) of the same compound?
Answer: better

Question: What about the remaining at 2 h [2, 4] of the same compound?
Answer: 98.6%

Question: What about the remaining at 4 h [2, 4] of the same compound?
Answer: 98.4%

Question: What about the remaining at 6 h [2, 4] of the same compound?
Answer: 98.3%

Question: What about the remaining at 8 h [2, 4] of the same compound?
Answer: 98.2%

Question: And the remaining at 12 h [2, 4]?
Answer: 97.5%

Question: What about the remaining at 2 h [2, 5] of the same compound?
Answer: 98.5%

Question: And the remaining at 4 h [2, 5]?
Answer: 98.2%

Question: And the remaining at 6 h [2, 5]?
Answer: 98%

Question: What about the remaining at 8 h [2, 5] of the same compound?
Answer: 97.8%

Question: And the remaining at 12 h [2, 5]?
Answer: 97.2%

Question: And the remaining at 2 h [2, 6]?
Answer: 97.2%

Question: What about the remaining at 4 h [2, 6] of the same compound?
Answer: 97.4%

Question: And the remaining at 6 h [2, 6]?
Answer: 97%

Question: And the remaining at 8 h [2, 6]?
Answer: 96.3%

Question: And the remaining at 12 h [2, 6]?
Answer: 95%

Question: And the “stability to light, moisture, heat” value ([3]; conclusion from the active destructing test)?
Answer: stable

Question: And the “peak area of mangiferin aglycone” value [3, 7]?
Answer: 233

Question: What about the “situations of other degradation products” value [3, 7] of the same compound?
Answer: No new peak for degradation product was found

Question: And the “peak area of mangiferin aglycone” value [3, 8]?
Answer: 234

Question: And the “situations of other degradation products” value [3, 8]?
Answer: No new peak for degradation product was found

Question: What about the “peak area of mangiferin aglycone” value [3, 9] of the same compound?
Answer: 0

Question: And the “situations of other degradation products” value [3, 9]?
Answer: UV shift occurred, and there were many peaks for degradation products

Question: And the “peak area of mangiferin aglycone” value [3, 10]?
Answer: 234

Question: What about the “situations of other degradation products” value [3, 10] of the same compound?
Answer: No peak for degradation product was found

Question: And the “peak area of mangiferin aglycone” value [3, 11]?
Answer: 215

Question: What about the “situations of other degradation products” value [3, 11] of the same compound?
Answer: One new degradation product was found

Question: What about the “peak area of mangiferin aglycone” value ([3]; undestructed (baseline sample)) of the same compound?
Answer: 234

Question: And the “situations of other degradation products” value ([3]; undestructed (baseline sample))?
Answer: No new peak for degradation product was found
